Laboratory results reported in ChEMBL document CHEMBL1201862, “PubChem BioAssay data set” (2004).
Values joined by “and” are separate entries in the source; they are usually repeats but may differ in a detail not shown here. Identical values can stand only once.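 Protocol summary: plate cells (96-well), add compound at 5 concentrations, incubate 48 h, interpolate endpoints linearly. GI50 = concentration required for 50% inhibition of growth.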 Active and inactive are the calls of the source. Rule as the data show it: active = GI50 up to about 1.1 µM and inactive = higher.

Tests used:
Assay in all cases: inhibition of tumour cell growth, NCI panel, 48 h
A549 = tested on: A549
ACHN = tested on: ACHN
CCRF-CEM = tested on: CCRF-CEM
EKVX = tested on: EKVX
HL-60 = tested on: HL-60
M14 = tested on: M14
NCI-H23 = tested on: NCI-H23
OVCAR-8 = tested on: OVCAR-8
PC-3 = tested on: PC-3
RPMI-8226 = tested on: RPMI-8226
SF-539 = tested on: SF-539
SK-MEL-5 = tested on: SK-MEL-5
SNB-75 = tested on: SNB-75
SR = tested on: SR
TK-10 = tested on: TK-10
UO-31 = tested on: UO-31
A498 = tested on: A498
DMS-114 = tested on: DMS-114
LXFL 529 = tested on: LXFL 529
HOP-18 = tested on: HOP-18

| Compound | GI50 (A549) | GI50 (ACHN) | GI50 (CCRF-CEM) | GI50 (EKVX) | GI50 (HL-60) | GI50 (M14) | GI50 (NCI-H23) | GI50 (OVCAR-8) | GI50 (PC-3) | GI50 (RPMI-8226) | GI50 (SF-539) | GI50 (SK-MEL-5) | GI50 (SNB-75) | GI50 (SR) | GI50 (TK-10) | GI50 (UO-31) | GI50 (A498) | GI50 (DMS-114) | GI50 (LXFL 529) | GI50 (HOP-18) |
| --- | --- | --- | --- | --- | --- | --- | --- | --- | --- | --- | --- | --- | --- | --- | --- | --- | --- | --- | --- | --- |
| CCOC1=NC(C(F)(F)F)(C(F)(F)F)N=C(N2CCOCC2)O1 | > 100 µM (inactive) | > 100 µM (inactive) | > 100 µM (inactive) | > 100 µM (inactive) | 89.5 µM (inactive) | > 100 µM (inactive) | > 100 µM (inactive) | > 100 µM (inactive) | > 100 µM (inactive) | > 100 µM (inactive) | > 100 µM (inactive) | > 100 µM (inactive) | > 100 µM (inactive) | > 100 µM (inactive) | > 100 µM (inactive) | > 100 µM (inactive) | – | – | – | – |
| Cc1nc(-c2nc([N+](=O)[O-])c([N+](=O)[O-])[nH]2)cs1 | > 100 µM (inactive) | > 100 µM (inactive) | > 100 µM (inactive) | > 100 µM (inactive) | > 100 µM (inactive) | > 100 µM (inactive) | > 100 µM (inactive) | – | – | > 100 µM (inactive) | > 100 µM (inactive) | > 100 µM (inactive) | > 100 µM (inactive) | > 100 µM (inactive) | > 100 µM (inactive) | > 100 µM (inactive) | > 100 µM (inactive) | > 100 µM (inactive) | > 100 µM (inactive) | – |
| CCOC(=O)c1ncoc1[C@H]1COC(C)(C)O1 | > 100 µM (inactive) | > 100 µM (inactive) | > 100 µM (inactive) | > 100 µM (inactive) | > 100 µM (inactive) | > 100 µM (inactive) | > 100 µM (inactive) | > 100 µM (inactive) | – | > 100 µM (inactive) | > 100 µM (inactive) | > 100 µM (inactive) | > 100 µM (inactive) | > 100 µM (inactive) | > 100 µM (inactive) | > 100 µM (inactive) | – | > 100 µM (inactive) | > 100 µM (inactive) | > 100 µM (inactive) |
| CN(C)CC(CC1=C(CC(CN(C)C)N(C)C)CCC1)N(C)C (stereo not given) | > 100 µM (inactive) | – | > 100 µM (inactive) | > 100 µM (inactive) | > 100 µM (inactive) | – | > 100 µM (inactive) | > 100 µM (inactive) | – | > 100 µM (inactive) | > 100 µM (inactive) | > 100 µM (inactive) | > 100 µM (inactive) | – | – | > 100 µM (inactive) | > 100 µM (inactive) | > 100 µM (inactive) | – | > 100 µM (inactive) |
| CCCCCCCCCCSCC(CO)NC(=O)/C=C/c1c(C)[nH]c(=O)[nH]c1=O (stereo not given) | 32.8 µM (inactive) and > 50 µM (inactive) | – | 259 nM (active) and 258 nM (active) | 3.93 µM (inactive) and 2.01 µM (inactive) | 1.82 µM (inactive) and 1.42 µM (inactive) | – | – | 1.04 µM (active) and 1.09 µM (active) | – | 23.1 µM (inactive) and 33.5 µM (inactive) | 1.46 µM (inactive) and 1.41 µM (inactive) | 1.16 µM (inactive) and 1.36 µM (inactive) | 1.39 µM (inactive) and 1.32 µM (inactive) | – | – | 10.5 µM (inactive) and 6.84 µM (inactive) | – | 548 nM (active) and 637 nM (active) | – | – |
| COc1ccc(C2=N/C(=C\c3ccccc3)C(=O)O2)cc1 | > 100 µM (inactive) | > 100 µM (inactive) | 31 µM (inactive) | > 100 µM (inactive) | 12.2 µM (inactive) | > 100 µM (inactive) | – | 30.8 µM (inactive) | > 100 µM (inactive) | 36.6 µM (inactive) | 44.3 µM (inactive) | – | 45.2 µM (inactive) | 17.3 µM (inactive) | > 100 µM (inactive) | – | – | – | – | – |
| COc1cccc2c1C(=O)c1c(O)c3c(c(O)c1C2=O)CC(O)(C(C)=O)CC3O (stereo not given) | 6.55 µM (inactive) | – | 1.88 µM (inactive) | 4.9 µM (inactive) | 3.6 µM (inactive) | – | 4.88 µM (inactive) | 2.84 µM (inactive) | – | 2.18 µM (inactive) | 4.74 µM (inactive) | 2.16 µM (inactive) | 9.68 µM (inactive) | – | – | 9.57 µM (inactive) | 1 µM (active) | 6.97 µM (inactive) | – | 22.6 µM (inactive) |
| Nc1ccc(/N=N/c2ccc(/C=C/c3ccc(/N=N/c4ccc(N)c5ccc(S(=O)(=O)O)cc45)cc3S(=O)(=O)O)c(S(=O)(=O)O)c2)c2cc(S(=O)(=O)O)ccc12 | > 100 µM (inactive) | – | > 100 µM (inactive) | > 100 µM (inactive) | > 100 µM (inactive) | – | > 100 µM (inactive) | > 100 µM (inactive) | – | > 100 µM (inactive) | > 100 µM (inactive) | > 100 µM (inactive) | 56.2 µM (inactive) | – | – | > 100 µM (inactive) | > 100 µM (inactive) | > 100 µM (inactive) | – | > 100 µM (inactive) |
| O=C1c2cc3c(cc2[C@@H]2C(O)[C@H]4O[C@H]4C4CCN1C42)OCO3 (stereo not given in full) | > 37.5 µM (inactive) | > 37.5 µM (inactive) | > 37.5 µM (inactive) | > 37.5 µM (inactive) | > 37.5 µM (inactive) | > 37.5 µM (inactive) | – | > 37.5 µM (inactive) | – | > 37.5 µM (inactive) | > 37.5 µM (inactive) | – | – | > 37.5 µM (inactive) | > 37.5 µM (inactive) | > 37.5 µM (inactive) | – | > 37.5 µM (inactive) | > 37.5 µM (inactive) | – |
| CCCCCCCC/C=C\CCCCCCCC(=O)O [OLEIC ACID] | 109 µM (inactive) | – | 99.8 µM (inactive) | 124 µM (inactive) | 126 µM (inactive) | – | 87.7 µM (inactive) | 99.1 µM (inactive) | – | 91.6 µM (inactive) | 103 µM (inactive) | > 212 µM (inactive) | 24.5 µM (inactive) | – | – | 158 µM (inactive) | > 431 µM (inactive) | 97.7 µM (inactive) | – | > 500 µM (inactive) |
